Source: patent US20250072423A1, “THIOPHENE ACETIC ACID FOR PLANT GROWTH REGULATION” (priority 2023, published 2025)

Experiments:
AtPIN1 (AT1G73590) = assay: qRT-PCR of early auxin-responsive gene AtPIN1 (Experiment 9); type: in vivo, A. thaliana; conditions: 10 μM TAA, after 6 hours
Experimental: (§1) To analyze TAA responsive genes in Arabidopsis, WT Arabidopsis seeds were germinated as described and 14-day-old uniform-looking seedlings were initially acclimatized in liquid germination medium for 2 hours before transferring to medium containing different concentrations of TAA (5 and 10 μM). Seedlings in media supplemented with DMSO were used as control. Five random seedlings were selected and considered as one sample and three samples from both control and treatments were flash frozen in liquid nitrogen and total RNA was isolated using a TRIzol reagent (ThermoFisher Scientific, Cat #15596026).
(§2) Expression levels of seven previously reported early auxin-responsive genes were verified by qRT-PCR (quantitative reverse transcription polymerase chain reaction). RNA reverse transcription was performed using QuantiTect Reverse Transcription Kit (Qiagen). Three biological replicates and three technical replicates were used for all qRT-PCRs. Arabidopsis actin gene (AT3G18780) was used as internal reference.

[1] = tested on: tomato cotyledon explants; assay: Shoot regeneration from tomato cotyledon explants with 1 mg/L BAP (Experiment 3); type: cell-based, tomato cultivar Roma VF
AtLBD29, AT3G58190 = assay: qRT-PCR of early auxin-responsive gene AtLBD29 (Experiment 9); type: in vivo, A. thaliana; conditions: 5 and 10 μM TAA, both time points
Experimental: as §1, §2

[2] = tested on: tomato cotyledon explants; assay: Root regeneration from tomato cotyledon explants in vitro (Experiment 2); type: cell-based, tomato cultivar Roma VF; conditions: 0.05 and 0.1 mg/L
Experimental: Seeds of tomato cultivar Roma VF were sterilized by treating with 75% ethanol for 30 seconds at room temperature and washed with sterile water for five times. The seeds were then treated with 15% sodium hypochlorite for 10 minutes and washed five times in sterile water. The sterilized seeds were germinated on half-strength Murashige and Skoog (MS) medium in vitro. Cotyledons from 10-day old seedlings before first true leaves emerged were used as starting explants in all the experiments. The base and tip of the cotyledons were excised and the explants were transferred with the abaxial surface in contact with the culture medium. The basic culture medium consists of MS medium with vitamins supplemented with 30 g/L sucrose and gelled with 0.8% agar, and the pH of the medium was adjusted to 5.8±0.2. Plates were maintained at a light cycle of 16/8 hours day/night, temperature of 26/24° C. day/night, and relative humidity of 70% and subcultured on the same media after 14 days. Observations were made on 7, 14, 21 and 28 days of growth. All experiments were conducted with at least three replicates of 10 explants each.
In order to analyze the effect of TAA on root regeneration, the basic media were supplemented with different concentrations of TAA (0.05 and 0.1 mg/L) and further compared with individual effect of widely used auxins (IAA, NAA, IBA, 2,4 D) at similar concentrations.

WT Arabidopsis seedlings = assay: Root growth of WT Arabidopsis seedlings in the presence of NPA (Experiment 7); type: in vivo, A. thaliana; conditions: 5 μM TAA added, all NPA concentrations analyzed (0.5-8 μM)
Experimental: Arabidopsis Columbia-0 wild type (WT) was used for assessing the effect of TAA on root growth and its effects on the expression of auxin-responsive genes. Seeds of A. thaliana were surface sterilized by suspending in 70% ethanol for 1 minute, followed by treatment with 10% bleach for 20 minutes. After thorough washing with sterile distilled water, the sterilized seeds were plated onto germination medium (half-strength Murashige and Skoog basal medium with vitamins (1/2 MS) medium supplemented with 1% sucrose and 0.7% plant agar) for germination. Germination was initiated by incubating the seeds in darkness at 5° C. for 2 days, followed by transfer to a light environment at 22° C. with a photoperiod of 16-h light/8-h dark for further growth. Stock solutions of TAA were prepared in DMSO (dimethyl sulfoxide). In control treatments, DMSO was used in equal amounts as present in the greatest concentration of TAA tested.
To analyze the effect of TAA on root growth in the presence of NPA (N-1-naphthylphthalamic acid), WT Arabidopsis seedlings were germinated as described and uniform-looking 8-day-old seedlings were transferred to germination medium supplemented with different concentrations of TAA (5 and 10 μM) and different concentrations of NPA (0, 0.5, 1, 2, 4, and 8 μM). The seedlings were allowed to grow for 6 days and the plates were photographed at 24 h intervals. […]

[3] = tested on: tomato cotyledon explants; assay: Shoot regeneration from tomato cotyledon explants with 1 mg/L BAP (Experiment 3); type: cell-based, tomato cultivar Roma VF; remark: listed apart in the source
From the text: The sterilized seeds were germinated on half-strength Murashige and Skoog (MS) medium in vitro. Cotyledons from 10-day old seedlings before first true leaves emerged were used as starting explants in all the experiments. The base and tip of the cotyledons were excised and the explants were transferred with the abaxial surface in contact with the culture medium. The basic culture medium consists of MS medium with vitamins supplemented with 30 g/L sucrose and gelled with 0.8% agar, and the pH of the medium was adjusted to 5.8±0.2. […] All experiments were conducted with at least three replicates of 10 explants each.
To analyse the effects on shoot regeneration, the basic media was supplemented with 1 mg/L BAP and different concentrations of TAA, IAA, NAA, IBA and 2,4 D (0.05, 0.1, 0.5, 1.0 and 2.0 mg/L) individually. Since there are no previous reports on suitable concentration ranges for TAA in tomato regeneration, concentrations at 50.0, 100.0, 200.0 and 300.0 mg/L were analysed additionally for TAA.

AtGH3.3 (AT2G23170) = assay: qRT-PCR of early auxin-responsive gene AtGH3.3 (Experiment 9); type: in vivo, A. thaliana; conditions: 5 and 10 μM TAA, concentration and time-dependent
Experimental: as §1, §2

O=C(O)Cc1ccsc1 [TAA]
AtPIN1 gene expression (AtPIN1 (AT1G73590)): nearly five-fold
number of shoots (shoot regeneration) ([1]; 10.0 mg/L with 1 mg/L BAP): maximum number of shoots
start of shoot formation ([1]; 0.05, 0.1, 0.5, 1.0, 2.0 and 10.0 mg/L with 1 mg/L BAP): ~14 days
shoot organogenesis ([1]; 0.05, 0.1, 0.5, 1.0, 2.0 and 10.0 mg/L with 1 mg/L BAP, by Day 28): many explants had well defined shoots
AtLBD29 expression (AtLBD29, AT3G58190): upregulation
root growth / root regeneration compared with known auxins ([2]; after Day 7 (FIG. 3)): performs on par with most known auxins
organogenesis from tomato cotyledon explants (root formation) ([2]; no other hormones, within 7 days): rapid root formation
number of root hairs (WT Arabidopsis seedlings): increased the number of root hairs
time to necrosis of explants ([3]; 300 mg/L with 1 mg/L BAP): ≤ 7 days
survival of explants ([3]; 300 mg/L with 1 mg/L BAP, by Day 28): all explants were dead
shoot organogenesis ([3]; 50.0, 100.0 and 200.0 mg/L with 1 mg/L BAP): did not show any shoot or root formation
AtGH3.3 upregulation (AtGH3.3 (AT2G23170)): over 70 fold
